From patent US20250275537A1, “CARBOXAMIDE APYRASE INHIBITORS” (Texas Crop Science, Inc., priority 2024, published 2025) come the findings set out here.

The test system of one assay is apyrase. In words: Apyrase inhibition assay (Method 1). It is filed as biochemical. The conditions noted are these: inhibitor conc at 1 mM stock, 10 μl per well; 1 hr room temperature; rounded average of at least two assay results. The procedure: Apyrase inhibitors useful as enhancers of pesticidal activity are assessed using an in vitro assay. The method of Windsor, Bio Techniques 33:1024-1030 (November 2002) was used as follows
96 well plates were used for the assay: (Greiner bio-one: REF-655901-96 well, PS, F-bottom, Clear, Non-binding)
• Reaction Buffer: 60 mM Hepes, 3 mM MgCl2, 3 mM CaCl2 and 3 mM ATP (pH 6.5) • Development Buffer A: 2% aqueous ammonium molybdate • Development Buffer B: 11% ascorbic acid in 37.5% TCA in water • Stop buffer C: 2% trisodium citrate in 2% acetic acid solution in water • Add 100 μl of reaction buffer to each well. • Add 10 μl of DMSO (control) or inhibitor/compound or compounds such as N1915 or orthovanadate to each well. (use inhibitor conc at 1 mM; orthovanadate at 2 mM and N1915 at 1 mM) • Add 10 μl of apyrase (concentration based on optimization —Dilute 1 U/μl enzyme to different concentrations such as 0.1U, 0.05U, 0.0025, 0.001U, 0.0005U—to find a good range) • Incubate plate at room temperature for 1 hr • Mix development buffer A and B in the ratio of 1:1.5 (just before use). • Add 50 ul of A:B mix in each well (incubate for 2 mins) • Add 50 ul of C in each well • Measure/Read Absorbance of plate @630 nm
Inhibitory data for the apyrase assay described above are provided for selected compounds in Table 3. In Table 3, D indicates inhibition of <10%.
With reference to Table 3, percent inhibition of apyrase is reported as the rounded average of at least two assay results.

Assay [1] relates to Brown Rust (Puccinia recondita) on wheat. In words: Greenhouse crop test: Brown Rust on wheat in combination with commercial fungicides (Method 3). It is filed as in vivo. The conditions noted are these: evaluated at fourteen days. The procedure:
In this method, exemplary compounds were evaluated for their ability to control Brown Rust (Puccinia recondita) on wheat, in a controlled greenhouse environment in combination with one of four fungicides, Amistar, Imtrex, Proline or Balaya. In these studies, JB Diego wheat plants were used. Seeds were sown in 9 cm diameter pots to a depth of 1 to 2 cm using Petersfield potting compost (75% medium grade peat, 12% screened sterilized loam, 3% medium grade vermiculite, 10% grit (5 mm screened, lime free), 1.5 kg PG mix per m3, lime to pH5.5-6.0 and wetting agent (Vitax Ultrawet 200 ml per m3) and germinated/grown at 23 C under a 16 h day/8 h night light regime. Plants were treated two to three weeks after sowing when they were at the BBCH 11 growth stage (first pair of true leaves (unifoliate) unfolded). Plants were inoculated with the Puccinia triticina (Brown rust on wheat plants) 24 hours after treatment. A track sprayer was used to treat the plants with the mixture of commercial fungicide and test compound using a water volume of 200 L/ha. […] Each plant was evaluated at fourteen days (once the disease symptoms were fully expressed) for % control of the disease. […] Also, each commercial fungicide was tested on its own as a part of each treatment, this being benchmark against which the experimental compounds were evaluated. […]

Assay [2] has as its system Amaranthus retroflexus (pigweed). In words: Enhancement of herbicide activity: pre-emergence Amaranthus kill with metribuzin (Method 4). The conditions noted are these: enhancer at 100 g/ha; for enhancement of metribuzin herbicidal activity: at seven and fourteen days. It is filed as in vivo. The text has this: Small amounts of acetone were used to aid solubility. The pots were watered immediately after sowing and treatment and then allowed to stand in a glasshouse. Assessment of kill was made seven and fourteen days after treatment. The test included four replicates for each treatment and the control.

In a further assay the test system is Microdochium nivale. In words: In vitro assessment of combination activity with fungicides (Method 2), Microdochium nivale. It is filed as cell-based. Conditions: in combination with azoxystrobin; visual % control on agar. On the procedure:
(§1) Selected compounds are assessed in combination with fungicides against a range of commercially important plant pathogenic fungi.
(§2) The test is conducted as follows. A fungicide is applied to a fungal plant pathogen at a rate slightly below that at which it gave any control, in combination with a suitable dose of the test compound. The test compound is recorded as active if control of the pathogen is observed.
(§3) In more detail, the test is conducted as follows. For each combination of fungicide, pathogen and test compound, the following wells are used. Well 1 contains a fungal pathogen growing on agar, and a fungicide at a rate just below that at which it gives any control of the pathogen. Well 2 is the same as Well 1, except that the test compound is also added at Rate 1. Well 3 is the same as Well 2, except that the test compound is added at Rate 2, where Rate 2 was higher than Rate 1. Finally, as a benchmark. Well 4 is the same as Well 1, except that it contains the fungicide at a higher rate, at which it gives partial control of the pathogen. Each of the Wells 1 to 4 are run in duplicate, giving a total of 8 wells for each combination of fungicide, pathogen and test compound. For each well, after a suitable period of incubation, a visual assessment of the % control of the pathogen by the fungicide is made. […]

The test system of assay [3] is strain of Zymoseptoria tritici with a reduced susceptibility to SDHI fungicides. Kind of assay: In vitro assessment of combination activity with fungicides (Method 2), Z. tritici SDHI-reduced-susceptibility strain. It is filed as cell-based. The conditions noted are these: any fungicide (azoxystrobin, fluxapyroxad, desthio prothioconazole). On the procedure:
as §1, §2, §3

Assay [4] has as its system strain of Zymoseptoria tritici with a reduced susceptibility to strobilurin fungicides. In words: In vitro assessment of combination activity with fungicides (Method 2), Z. tritici strobilurin-reduced-susceptibility strain. It is filed as cell-based. The conditions noted are these: any fungicide (azoxystrobin, fluxapyroxad, desthio prothioconazole). The procedure:
as §1, §2, §3

Setting [5] is: Assessed 7 DAT, metribuzin rate 50 g/ha.
Setting [6] is: Assessed 7 DAT, metribuzin rate 100 g/ha.
[7] abbreviates: Assessed 7 DAT, metribuzin rate 200 g/ha.
Setting [8] is: Assessed 14 DAT, metribuzin rate 50 g/ha.
Setting [9] is: Assessed 14 DAT, metribuzin rate 100 g/ha.
The mark [10] stands for this setting: Assessed 14 DAT, metribuzin rate 200 g/ha.

Each structure is given as a SMILES string.

Turning to `O=C(Nc1ccccc1)c1ccc(C(=O)Nc2ccccc2)cc1` [Compound I-3, N^1,N^4-diphenylterephthalamide], the “% Inhibition of Apyrase” value in the assay with apyrase is listed as “A (A indicates inhibition above 30%)”. The “additional Brown Rust control in combination with Balaya over Balaya alone” value in assay [1] (Balaya 0.25 L/ha) is “measurable additional Brown Rust control”.
In the case of `O=C(Nc1ccccc1Cl)c1ccccc1C(=O)Nc1ccccc1Cl` [Compound I-14, N^1,N^2-bis(2-chloropheny)phthalamide], the “% Inhibition of Apyrase” value in the assay with apyrase is recorded as “A (A indicates inhibition above 30%)”. The “Pre-Emergence Amaranthus Kill Percentage” value is reported as 21.3% in assay [2] (setting [5]); 93.9% in assay [2] (setting [6]); 98.0% in assay [2] (setting [7]); 32.7% in assay [2] (setting [8]); 94.0% in assay [2] (setting [9]); 100.0% in assay [2] (setting [10]). Besides, the “enhancement of metribuzin herbicidal activity” value in assay [2] is “significant enhancement”.
As to `COCc1cc(F)ccc1NC(=O)c1cccc(C(=O)Nc2ccc(F)cc2COC)c1` [Compound I-63, N^1,N^3-bis(4-fluoro-2-(methoxymethyl)phenyl)isophthalamide], the “% Inhibition of Apyrase” value in the assay with apyrase was “A (A indicates inhibition above 30%)”. Further, the “Pre-Emergence Amaranthus Kill Percentage” value is 2.0% in assay [2] (setting [5]); 34.0% in assay [2] (setting [6]); 96.3% in assay [2] (setting [7]); 4.1% in assay [2] (setting [8]); 34.0% in assay [2] (setting [9]); 98.2% in assay [2] (setting [10]). Moreover, the “enhancement of metribuzin herbicidal activity” value in assay [2] was “significant enhancement”.
On to `CN(C(=O)c1cccc(C(=O)Nc2cc(Br)ccc2F)c1)c1ccccc1` [Compound I-65, N^1-(5-bromo-2-fluorophenyl)-N3-methyl-N^3-phenylisophthalamide], for which the “% Inhibition of Apyrase” value with apyrase was “D (D indicates inhibition of <10%)”.
For `O=C(c1ccc(C(=O)N2CCc3ccccc32)cc1)N1CCc2ccccc21` [Compound I-66, 1,4-phenylenebis(indolin-1-ylmethanone)], the “% Inhibition of Apyrase” value in the assay on apyrase is listed as “A (A indicates inhibition above 30%)”. Moreover, the “additional Brown Rust disease control in combination with Amistar over Amistar alone” value in assay [1] (Amistar 0.04 L/ha) was “greater than 20%”.
In the case of `N#Cc1cccc(NC(=O)c2ccc(C(=O)Nc3cccc(C#N)c3)cc2)c1` [Compound I-67, N^1,N^4-bis(3-cyanophenyl)terephthalamide], the “% Inhibition of Apyrase” value with apyrase was “A (A indicates inhibition above 30%)”.
With `O=C(Nc1cccc([N+](=O)[O-])c1)c1cccc(S(=O)(=O)Nc2ccc(Br)cc2)c1` [Roux Compound 13], the results for the “enhancement of fungicide activity (combination activity)” value (in the assay with Microdochium nivale; in assay [3]; in assay [4]) were “enhancing the activity of azoxystrobin”, “failing to enhance activity of any fungicide” and “failing to enhance activity of any fungicide”, respectively.
Take `CSc1nnc(C(C)(C)C)c(=O)n1N` [metribuzin, reference compound]: in assay [2] (setting [5]), the “Pre-Emergence Amaranthus Kill Percentage” value stood at 0.0%.
